Measurements from patent publication US20250041461A1, “[177LU] LUTETIUM-PSMA I&T COMPOSITION AND DOSIMETRY, KIT, METHOD OF MAKING, AND METHOD OF USING THEREOF” (Curium US LLC, priority 2023, published 2025).
Several values for one entry are separate records, joined by “and”; a condition that tells them apart may be missing. Equal values may be shown once.

Assay: Dosimetry sub-study, first 6 patients, cycle 1 (SPECT/CT, TIAC, OLINDA 2.2.3)
Assay type: in vivo, human
Conditions: for projected cumulative absorbed dose to the kidneys after 6 cycles: 7.4 GBq per cycle, number of cycles x absorbed dose at cycle 1
Protocol: Six subjects were administered a target dose of 7.4 GBq (mean 7.52±0.16 GBq) of ^177Lu-PSMA-I&T. Following the infusion, subjects underwent single photon emission computed tomography (SPECT)/computed tomography (CT) imaging at four timepoints (4 h, 24 h, 48 h, 168 h). Image data were analysed to compute time integrated activity coefficients (TIAC) in each organ of interest and/or with appreciable and meaningful ^177Lu-PSMA-I&T activity above background which included kidneys, bladder, liver, lumbar vertebrae L2-L4, lacrimal glands, salivary glands, intestine and whole body. To compute subject-specific organ doses, organ-level TIAC data were entered into Organ Level Internal Dose Assessment, OLINDA 2.2.3 and resulting organ doses for each target organ and whole-body effective dose were collated and averaged.
Patients received SPECT/CT imaging (anatomical coverage included the salivary gland and extended through the pelvis) following the injection of 7.4 (+/−10%) GBq of ^177Lu-PSMA-I&T (detailed injected doses are reported). All patients completed the first treatment cycle and the acquisition of images was carried out without any protocol deviation.
The imaging data was analyzed using Invicro's VivoQuant software, a validated software used in a 21 CFR § 11-compliant workflow. The general quantification approach was based on the principles detailed in MIRD Pamphlet No. 16 (Siegel J, Thomas S, Stubbs J, et al. MIRD pamphlet no. 16: Techniques for quantitative radiopharmaceutical biodistribution data acquisition and analysis for use in human radiation dose estimates. J Nucl Med. 1999; 40:37S-61S and MIRD Primer for Absorbed Dose Calculations, Revised Ed. J Nucl Med. 1991), No 23 (Dewaraja Y K, Frey E C, Sgouros G, et al. MIRD pamphlet No. 23: quantitative SPECT for patient-specific 3-dimensional dosimetry in internal radionuclide therapy. J Nucl Med. 2012; 53(8):1310-1325), and No 26 (Ljungberg M, Celler A, Konijnenberg M W, et al. MIRD Pamphlet No. 26: Joint EANM/MIRD Guidelines for Quantitative ^177Lu SPECT Applied for Dosimetry of Radiopharmaceutical Therapy. J Nucl Med. 2016; 57(1):151-162), as appropriate.
Each SPECT image was co-registered with its corresponding CT. Image calibration was performed to convert the counts measured on the SPECT images to activity (Bq) (Ljungberg et al. MIRD Pamphlet No. 26: Joint EANM/MIRD Guidelines for Quantitative ^177Lu SPECT Applied for Dosimetry of Radiopharmaceutical Therapy. J Nucl Med. 2016; 57(1):151-162). The same SPECT/CT system was used in each patient for the entirety of the dosimetry study.
Regions of interest (kidneys, bladder, liver, lumbar vertebrae L2-L4, lacrimal glands, salivary glands and whole body) were drawn on each dataset by a trained image analyst. Lumbar vertebrae L2-L4 was delineated on the CT images (Hindorf C, Glatting G, Chiesa C, Linden O, Flux G, Committee ED. EANM Dosimetry Committee guidelines for bone marrow and whole-body dosimetry. Eur J Nucl Med Mol Imaging. 2010; 37(6):1238-1250) to derived red marrow doses. For kidneys, an ROI was drawn on the SPECT image to include all the uptake seen in the kidneys. Similarly for lacrimal glands, all the uptake observed on the SPECT image at the lacrimal glands location was segmented.
Time-activity curves of the activity in each ROI as a function of time were plotted. These curves were normalized by the known injected activity to arrive at units of fraction of injected activity. Calculations of time-integrated activity coefficient (TIAC, in units of hours) were performed for each region of interest listed above.
Clearance of the tracer was derived from a data-appropriate fit of each organ TAC. The curve fit was optimized using the Akaike information criterion (AIC) and checked visually by an image scientist. Depending on the shape of the TAC, the data was fitted with the sum of one, two or three exponentials or using a rise and fall model. […]

Q: Which “Absorbed Dose, Adrenals, Mean” value (6 patients, cycle 1) does the source give for `O=C([O-])CC[C@H](NC(=O)N[C@@H](CCCCNC(=O)CCCCCCC(=O)NCCCC[C@@H](NC(=O)[C@@H](Cc1ccccc1)NC(=O)[C@@H](Cc1ccc(O)c(I)c1)NC(=O)CC[C@H](C(=O)[O-])N1CCN(CC(=O)[O-])CCN(CC(=O)[O-])CCN(CC(=O)[O-])CC1)C(=O)[O-])C(=O)[O-])C(=O)[O-].[177Lu+3].[H+].[H+].[H+].[H+].[H+]` [^177Lu-PSMA I&T, (3S,7S,26R,29R,32R,37R)-29-benzyl-32-(4-hydroxy-3-iodobenzyl)-5,13,20,28,31,34-hexaoxo-37-(4,7,10-tris(carboxymethyl)-1,4,7,10-tetraazacyclododecan-1-yl)-4,6,12,21,27,30,33-heptaazaheptatriacontane-1,3,7,26,37-pentacarboxylic acid; lutetium-177 (III)] here?
A: The value was 0.02 Gy/GBq.

Q: What about the “Absorbed Dose, Brain, Mean” value (6 patients, cycle 1) of the same compound?
A: Its value is 0.01 Gy/GBq.

Q: And the “Absorbed Dose, Esophagus, Mean” value (6 patients, cycle 1)?
A: Its value is 0.01 Gy/GBq.

Q: And the “Absorbed Dose, Eyes, Mean” value (6 patients, cycle 1)?
A: The value was 0.01 Gy/GBq.

Q: And the “Absorbed Dose, Gallbladder wall, Mean” value (6 patients, cycle 1)?
A: Its value is 0.02 Gy/GBq.

Q: And the “Absorbed Dose, Heart wall, Mean” value (6 patients, cycle 1)?
A: Its value is 0.01 Gy/GBq.

Q: What about the “Absorbed Dose, Kidneys, Mean” value (6 patients, cycle 1) of the same compound?
A: The value was 0.46 Gy/GBq.

Q: And the “Absorbed Dose, Left colon, Mean” value (6 patients, cycle 1)?
A: The value was 0.39 Gy/GBq.

Q: What about the “Absorbed Dose, Liver, Mean” value (6 patients, cycle 1) of the same compound?
A: Its value is 0.03 Gy/GBq.

Q: What about the “Absorbed Dose, Lungs, Mean” value (6 patients, cycle 1) of the same compound?
A: The value was 0.01 Gy/GBq.

Q: What about the “Absorbed Dose, Osteogenic cells, Mean” value (6 patients, cycle 1) of the same compound?
A: Its value is 0.02 Gy/GBq.

Q: And the “Absorbed Dose, Pancreas, Mean” value (6 patients, cycle 1)?
A: Its value is 0.02 Gy/GBq.

Q: And the “Absorbed Dose, Prostate, Mean” value (6 patients, cycle 1)?
A: Its value is 0.02 Gy/GBq.

Q: And the “Absorbed Dose, Rectum, Mean” value (6 patients, cycle 1)?
A: The value was 0.37 Gy/GBq.

Q: And the “Absorbed Dose, Red Marrow, Mean” value (6 patients, cycle 1)?
A: Its value is 0.02 Gy/GBq.

Q: And the “Absorbed Dose, Right colon, Mean” value (6 patients, cycle 1)?
A: Its value is 0.21 Gy/GBq.

Q: What about the “Absorbed Dose, Salivary Glands, Mean” value (6 patients, cycle 1) of the same compound?
A: The value was 0.10 Gy/GBq.

Q: And the “Absorbed Dose, Small intestine, Mean” value (6 patients, cycle 1)?
A: Its value is 0.05 Gy/GBq.

Q: What about the “Absorbed Dose, Spleen, Mean” value (6 patients, cycle 1) of the same compound?
A: Its value is 0.02 Gy/GBq.

Q: And the “Absorbed Dose, Stomach Wall, Mean” value (6 patients, cycle 1)?
A: Its value is 0.01 Gy/GBq.

Q: What about the “Absorbed Dose, Testes, Mean” value (6 patients, cycle 1) of the same compound?
A: The value was 0.01 Gy/GBq.

Q: And the “Absorbed Dose, Thymus, Mean” value (6 patients, cycle 1)?
A: The value was 0.01 Gy/GBq.

Q: What about the “Absorbed Dose, Thyroid, Mean” value (6 patients, cycle 1) of the same compound?
A: The value was 0.01 Gy/GBq.

Q: What about the “Absorbed Dose, Total Body, Mean” value (6 patients, cycle 1) of the same compound?
A: Its value is 0.02 Gy/GBq.

Q: What about the “Absorbed Dose, Urinary Bladder wall, Mean” value (6 patients, cycle 1) of the same compound?
A: The value was 0.37 Gy/GBq.

Q: And the “absorbed dose, kidneys” value (6 patients, cycle 1)?
A: Its value is 0.46±0.23 Gy/GBq.

Q: And the “absorbed dose, lacrimal glands” value (6 patients, cycle 1)?
A: Its value is 0.77±0.25 Gy/GBq.

Q: What about the “absorbed dose, left colon” value (6 patients, cycle 1) of the same compound?
A: The value was 0.39±0.32 Gy/GBq.

Q: And the “absorbed dose, rectum” value (6 patients, cycle 1)?
A: Its value is 0.37±0.31 Gy/GBq.

Q: What about the “absorbed dose, right colon” value (6 patients, cycle 1) of the same compound?
A: Its value is 0.21±0.17 Gy/GBq.

Q: And the “absorbed dose, salivary glands” value (6 patients, cycle 1)?
A: The value was 0.10±0.06 Gy/GBq.

Q: And the “absorbed dose, urinary bladder wall” value (6 patients, cycle 1)?
A: Its value is 0.37±0.20 Gy/GBq.

Q: And the “Whole-body time integrated activity coefficient, mean” value (6 patients, cycle 1, 7.4 GBq, SD 6.7)?
A: The value was 16.6 h.

Q: And the “projected cumulative absorbed dose to the kidneys after 6 cycles” value (6 patients)?
A: The value was 20.4±10.2 Gy.

Q: What about the “projected cumulative absorbed dose to the kidneys after 6 cycles” value (6 patients, listed as 177Lu-PSMA-I&T) of the same compound?
A: Its value is 20.4 Gy.

Q: And the “risk of kidney toxicities with 6 treatment cycles” value (conclusion from dosimetry results)?
A: Its value is “possible without the risk of kidney toxicities”.

Q: And the “Effective Dose Cycle 1” value (individual patients (one per Subject ID))?
A: The value was 9.03E−02 mSv/MBq and 3.11E−02 mSv/MBq and 1.11E−01 mSv/MBq and 6.97E−02 mSv/MBq and 8.11E−02 mSv/MBq and 2.68E−02 mSv/MBq.

Q: What about the “Kidneys Absorbed Dose (Gy/GBq)” value (individual patients (one per Subject ID), cycle 1) of the same compound?
A: The value was 0.27 Gy/GBq and 0.22 Gy/GBq and 0.48 Gy/GBq and 0.64 Gy/GBq and 0.34 Gy/GBq and 0.81 Gy/GBq.

Q: What about the “Kidneys Absorbed Dose (Gy)” value (individual patients (one per Subject ID), cycle 1, actual injected dose) of the same compound?
A: Its value is 2.03 Gy and 1.68 Gy and 3.62 Gy and 4.87 Gy and 2.56 Gy and 5.82 Gy.

Q: What about the “Kidneys Absorbed Dose (Gy) Assuming 7.4 GBq per cycle” value (individual patients (one per Subject ID), one cycle) of the same compound?
A: The value was 4.8 Gy and 2.5 Gy and 6.0 Gy and 2.0 Gy and 1.7 Gy and 3.6 Gy.

Q: What about the “Extrapolation of Absorbed Dose to 6 Cycles (Gy) Assuming 7.4 GBq per cycle” value (kidneys, individual patients (one per Subject ID)) of the same compound?
A: The value was 28.5 Gy and 15.0 Gy and 35.8 Gy and 11.8 Gy and 9.9 Gy and 21.3 Gy.

Q: And the “Extrapolation of Absorbed Dose to 6 Cycles (Gy) Assuming 7.4 GBq per cycle, mean” value (kidneys, mean of 6 patients)?
A: The value was 20.4 Gy.

Q: And the “Kidneys Absorbed Dose (Gy), Mean” value (mean of 6 patients, cycle 1)?
A: Its value is 3.43 Gy.

Q: And the “Kidneys Absorbed Dose (Gy/GBq), Mean” value (mean of 6 patients, cycle 1)?
A: Its value is 0.46 Gy/GBq.

Q: What about the “Whole Body TIAC (time integrated activity coefficient), Mean” value (mean of 6 patients, cycle 1) of the same compound?
A: The value was 16.6 h.

Q: And the “Kidneys Absorbed Dose (Gy) Assuming 7.4 GBq per cycle, mean” value (mean of 6 patients, one cycle)?
A: The value was 3.4 Gy.
